According to the supplement of paper PMC11003180:

Legend:
Experiment in all cases: drug sensitivity score (DSS) from 5-dose viability curve (DSS (area-based score, 0 = no response)); higher = more sensitive (stronger viability inhibition); extreme values may be limits of the assay
[1] = test system: MDCK wild-type - doxycycline; details: doxycycline: none; 72 h
In short: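 For 72 h at 37 °C, parental MDCK cells (no doxycycline, 2000 cells/well) were incubated on 384-well plates pre-spotted with 528 oncology drugs at five doses from 1 to 10,000 nM. CellTiter-Glo luminescence served as the viability readout, scaled per plate between vehicle and positive controls. The Breeze pipeline then fitted dose-response curves to yield drug sensitivity scores.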

[2] = test system: MDCK p60AmotL2-inducible + doxycycline (p60AmotL2 expressing); details: doxycycline: 10 ng/mL; 72 h
In short: (§1)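 Two MDCK lines, parental and doxycycline-inducible, received doxycycline at 10 ng/mL in the medium before being plated at 2000 cells/well onto a pre-spotted 384-well oncology library of 528 drugs at five doses (1-10,000 nM). Incubation lasted 72 h at 37 °C. Viability was read by CellTiter-Glo luminescence, scaled per plate between vehicle and positive controls, and converted to drug sensitivity scores through Breeze curve fitting.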

[3] = test system: MDCK wild-type + doxycycline; details: doxycycline: 10 ng/mL; 72 h
In short: as §1

Compound | drug sensitivity score [1] | drug sensitivity score [2] | drug sensitivity score [3]
Cc1cc(C)c(CNC(=O)c2cc(-c3ccc(CN4CCOCC4)cc3)cc3c2cnn3C2CCCC2)c(=O)[nH]1 [EPZ-5687] | 0 | 0 | 0
Nc1ccn([C@@H]2O[C@H](CO)[C@@H](O)C2(F)F)c(=O)n1 [Gemcitabine] | 2.2 | 7.7 | 5.5
O=c1sn(-c2cccc3ccccc23)c(=O)n1Cc1ccccc1 [Tideglusib] | 0 | 0 | 0
N#CC(c1ccnc(OCc2ccc(CN3CCOCC3)cc2)n1)c1nc2ccccc2s1 (configuration not stated) [Bentamapimod] | 1.2 | 2.1 | 1.5
CCc1cc2c(cc1N1CCC(N3CCOCC3)CC1)C(C)(C)c1[nH]c3cc(C#N)ccc3c1C2=O [Alectinib] | 0 | 0 | 0
Cc1ccc(Nc2nccc(N(C)c3ccc4c(C)n(C)nc4c3)n2)cc1S(N)(=O)=O [Pazopanib] | 0 | 0 | 0
COc1cccc2c1C(=O)c1c(O)c3c(c(O)c1C2=O)C[C@@](O)(C(C)=O)C[C@@H]3O[C@H]1C[C@H](N)[C@H](O)[C@H](C)O1 [Daunorubicin] | 9.5 | 11.6 | 10.3
O=C1CCC(N2C(=O)c3ccccc3C2=O)C(=O)N1 (configuration not stated) [Thalidomide] | 0 | 0 | 0
CCNCCS(=O)(=O)NC[C@@]1(c2ccccc2)SC(NC(=O)C(C)(C)C)=NN1C(=O)C(C)(C)C [Litronesib] | 22 | 26.6 | 25.1
COc1ccc(-c2ccc3ncc4c(c3c2)n(-c2ccc(N3CCNCC3)c(C(F)(F)F)c2)c(=O)n4C)cn1 [NVP-BGT226] | 11.8 | 18.9 | 13.5
COc1cc2nccc(Oc3ccc(NC(=O)NC4CC4)c(Cl)c3)c2cc1C(N)=O [Lenvatinib] | 0 | 0 | 0
C[C@@H]1COC(Nc2ccc3ncnc(Nc4ccc(OCc5nccs5)c(Cl)c4)c3c2)=N1 [Varlitinib] | 1.6 | 7.2 | 3.6
C=C1C[C@@H]2[C@H](CC[C@]3(C)C(=O)CC[C@@H]23)[C@@]2(C)C=CC(=O)C=C12 [Exemestane] | 0 | 0 | 0
O=C(O)CC[C@H]1CC[C@@](c2cc(F)ccc2F)(S(=O)(=O)c2ccc(Cl)cc2)CC1 [MK-0752] | 0 | 0 | 0
Cn1cncc1[C@@](N)(c1ccc(Cl)cc1)c1ccc2c(c1)c(-c1cccc(Cl)c1)cc(=O)n2C [Tipifarnib] | 2.5 | 9.6 | 4.4
COc1cc(N2CCC(N3CCN(C)CC3)CC2)ccc1Nc1ncc(Cl)c(Nc2ccccc2P(C)(C)=O)n1 [Brigatinib] | 4.1 | 5.2 | 2.6
Nc1nc2cc(-c3ccc4ncc(C(=O)N5CCOCC5)n4c3)ccc2o1 [Serabelisib] | 0 | 1.3 | 0.1
CC(C)(C)C[C@@H]1N[C@@H](C(=O)N[C@H]2CC[C@H](O)CC2)[C@H](c2cccc(Cl)c2F)[C@]12C(=O)Nc1cc(Cl)ccc12 | 2.9 | 7.2 | 4.7
Nc1nc(Cl)nc2c1ncn2[C@@H]1O[C@H](CO)[C@@H](O)[C@@H]1F [Clofarabine] | 12.1 | 13.8 | 12.9
CS(=O)(=O)c1ccc(-c2cnc(N)c(C(=O)Nc3ccccc3)n2)cc1 [VE-821] | 0 | 0 | 0
COc1cc2nccc(Oc3ccc(NC(=O)Nc4cc(C)on4)c(Cl)c3)c2cc1OC [Tivozanib] | 2.5 | 4.4 | 8.2
CO[C@H](C(=O)[C@@H](O)[C@@H](C)O)[C@@H]1Cc2cc3cc(O[C@H]4C[C@@H](O[C@@H]5C[C@@H](O)[C@H](O)[C@@H](C)O5)[C@H](O)[C@@H](C)O4)c(C)c(O)c3c(O)c2C(=O)[C@H]1O[C@H]1C[C@@H](O[C@@H]2C[C@@H](O)[C@@H](O[C@@H]3C[C@](C)(O)[C@H](O)[C@@H](C)O3)[C@@H](C)O2)[C@H](O)[C@@H](C)O1 [Plicamycin] | 10.4 | 14.1 | 11.3

Compound | drug sensitivity score [1] | drug sensitivity score [2] | drug sensitivity score [3]
CC(C)(C)c1cc(NC(=O)Nc2ccc(Oc3ccnc4[nH]c(=O)cnc34)cc2F)n(-c2ccccc2)n1 | 4.9 | 7 | 5.1
Cn1cc(C2=Nc3cc(NC(=O)C(N)C4CCCCC4)cc4c3C2=CNNC4=O)cn1 (configuration not stated) | 0 | 1.1 | 0
CCC(C)n1ncn(-c2ccc(N3CCN(c4ccc(OCC5COC(Cn6cncn6)(c6ccc(Cl)cc6Cl)O5)cc4)CC3)cc2)c1=O (configuration not stated) [Itraconazole] | 7.9 | 10.7 | 7.7
CC(C)c1cc(-c2n[nH]c(=O)n2-c2ccc3c(ccn3C)c2)c(O)cc1O [Ganetespib] | 16.7 | 19.3 | 17.4
Cc1cccc(CC(=O)N2CCc3c2ccc(-c2cn(C)c4ncnc(N)c24)c3F)n1 | 0 | 0 | 0
Cc1nc(Nc2ncc(C(=O)Nc3c(C)cccc3Cl)s2)cc(N2CCN(CCO)CC2)n1 [Dasatinib] | 4.9 | 13.7 | 1.8
CC[C@@H](C(=O)[C@@H](C)[C@@H](O)[C@H](C)[C@@H]1O[C@@H]([C@@H](CC)C(=O)O)CC[C@@H]1C)[C@H]1O[C@]2(C=C[C@@H](O)[C@]3(CC[C@@](C)([C@H]4CC[C@](O)(CC)[C@H](C)O4)O3)O2)[C@H](C)C[C@@H]1C [Salinomycin] | 0.4 | 18.7 | 0.9
CCN(CC)CCCC(C)Nc1c2ccc(Cl)cc2nc2ccc(OC)cc12 (configuration not stated) [Mepacrine] | 10.5 | 15.2 | 16.2
C[C@]1(O)C[C@@H](c2nc(-c3ccc4ccc(-c5ccccc5)nc4c3)c3c(N)nccn32)C1 [Linsitinib] | 0 | 0 | 0
CN(C)C(=O)c1ccc(S(=O)(=O)c2ccc(NC(=O)[C@@](C)(O)C(F)(F)F)c(Cl)c2)cc1 [AZD7545] | 0 | 0 | 0
COc1cccc(-c2ccc(NC(=O)C3=C(C(=O)O)CCC3)c(F)c2)c1 [Vidofludimus] | 0.4 | 1.2 | 0.6
Nc1ncn([C@@H]2O[C@H](CO)[C@@H](O)[C@H]2O)c(=O)n1 [Azacitidine] | 0.3 | 0.7 | 0.6
CC[C@H](CO)Nc1nc(NCc2ccccc2)c2ncn(C(C)C)c2n1 [Seliciclib] | 0 | 2.4 | 1.2
C=CC(=O)N1CCC[C@@H](n2nc(-c3ccc(Oc4ccccc4)cc3)c3c(N)ncnc32)C1 [Ibrutinib] | 4.5 | 9.7 | 3.8
Nc1nc(NC2CC2)cc(-c2cccc(Cl)c2Cl)n1 [TH588] | 0 | 0 | 0
Cc1cc(OCc2nnc(SC3CCCC3)n2-c2cccnc2)ccc1-c1ccc(S(C)(=O)=O)cc1 [NMS-873] | 12.8 | 14.7 | 13.5
CN[C@@H](C)C(=O)N[C@H](C(=O)N1CCC[C@H]1c1nc(C(=O)c2ccc(F)cc2)cs1)C1CCCCC1 [NVP-LCL161] | 0 | 0.5 | 3.1
Oc1ccc2c(c1)CC[C@H](c1ccccc1)[C@@H]2c1ccc(OCCN2CCCC2)cc1 [Lasofoxifene] | 0 | 0 | 0
O=c1[nH]c(C2CCCN2)nc2c1oc1ccc(Cl)cc12 (configuration not stated) | 0 | 0 | 0
CC(C)C[C@@H](C(=O)N[C@H](C(=O)OC1CCCC1)c1ccccc1)[C@H](O)C(=O)NO [Tosedostat] | 1.4 | 2.5 | 1.7
CN(C)CCCOc1ccc(-c2ccc3ncc4c(c3c2)n(C2CCOCC2)c(=O)n4C)cn1 [AZD0156] | 0 | 1 | 0
NC(=S)N/N=C/c1ncccc1N [Triapine] | 4.7 | 3.9 | 3.6
